Test results from patent US20170107207A1, “AMINOPYRAZOLONE DERIVATIVE” (DAIICHI SANKYO COMPANY, LIMITED, priority 2014, published 2017).
pIC50: −log10 of the molar value.

Assays:
[1] = test system: human lymphoma cell line RAMOS cells; assay: Cell growth inhibition test using RAMOS cell, MTT assay; type: cell-based; conditions: 50% growth inhibition concentration
Method: A cell growth inhibition test was carried out by treating human lymphoma cell line RAMOS cells with a test compound for a given period and then counting the number of viable cells by MTT assay or CellTiter-Glo Luminescent Cell Viability Assay (manufactured by Promega Corp.; hereinafter, referred to as ATP assay).
RAMOS cells were suspended in a medium (RPMI1640 medium containing 10% fetal bovine serum). The cell suspension was inoculated at 5000 cells/150 μL/well to a 96-well multiwell plate. The test compound was dissolved in DMSO, and this solution was diluted with medium to prepare a sample solution (DMSO concentration: 1% or lower). Subsequently, test compound-free medium or the sample solution was added thereto at 50 μL/well. The MTT assay was carried out at the day of addition of the sample solution or the DMSO dilution to the cells and after culture at 37° C. for 3 days under 5% CO2 of the cells supplemented with the sample solution or the medium. The MTT assay was carried out as follows.
A 5 mg/mL solution of MTT (3-(4,5-dimethylthiazol-2-yl)-2,5-diphenyltetrazolium bromide, Sigma-Aldrich Corp., M-2128) was prepared using a phosphate buffered solution (Dulbecco's phosphate-buffered saline). This MTT solution was added at 20 μL/well to the plate. Then, the plate was incubated at 37° C. for 4 hours under 5% CO2. The plate was centrifuged at 1200 rpm for 5 minutes, and then, the culture supernatant was removed by suction using a dispenser. DMSO was added thereto at 150 μL/well to dissolve formed formazan. […] from each well was rendered uniform by the stirring of the plate using a plate mixer. The absorbance of each well was measured using a plate reader under conditions involving OD of 540 nm and reference of 660 nm.
The number of viable cells and absorbance (hereinafter, referred to as an OD value) have been confirmed to correlate with each other. Therefore, the rate of cell growth was calculated according to the following expression: Rate of cell growth (T/C %) of a test compound-supplemented well=100×[(B−C)/(A−C)] wherein A represents the OD value (final culture date) of a test compound-free well; B represents the OD value (final culture date) of a test compound-containing well; and C represents the OD value (day of cell inoculation) of a well at the start of contact of the cells with the test compound.
T/C % at each concentration of the test compound was determined. The concentration at which the test compound offered 50% growth rate was calculated as a 50% growth inhibition concentration (GI50) value from the growth rates at two points interpolating 50% and the concentrations, and is shown in Table 56.

TIP48/TIP49 complex = target: T1, TIP48/TIP49 complex (Homo sapiens, UniProt Q9Y230+Q9Y265); assay: ATPase assay of TIP48/TIP49 complex (ADP-Glo); type: biochemical; conditions: concentration at which the ATPase activity was inhibited by 50%
T1 construct: made in house; host or cells: E. coli
T1 sequence (Q9Y230 whole entry): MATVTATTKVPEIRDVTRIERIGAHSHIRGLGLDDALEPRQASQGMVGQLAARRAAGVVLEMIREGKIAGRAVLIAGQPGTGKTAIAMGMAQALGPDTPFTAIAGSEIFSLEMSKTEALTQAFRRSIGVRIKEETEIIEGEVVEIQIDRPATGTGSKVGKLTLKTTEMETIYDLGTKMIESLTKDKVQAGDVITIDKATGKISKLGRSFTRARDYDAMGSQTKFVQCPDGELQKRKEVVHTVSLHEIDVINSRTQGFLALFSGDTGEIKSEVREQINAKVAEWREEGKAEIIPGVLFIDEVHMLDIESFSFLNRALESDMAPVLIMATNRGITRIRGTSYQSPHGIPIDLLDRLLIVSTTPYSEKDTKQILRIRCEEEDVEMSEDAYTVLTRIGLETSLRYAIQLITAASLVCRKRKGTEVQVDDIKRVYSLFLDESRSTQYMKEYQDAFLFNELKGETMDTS
T1 sequence (Q9Y265 whole entry): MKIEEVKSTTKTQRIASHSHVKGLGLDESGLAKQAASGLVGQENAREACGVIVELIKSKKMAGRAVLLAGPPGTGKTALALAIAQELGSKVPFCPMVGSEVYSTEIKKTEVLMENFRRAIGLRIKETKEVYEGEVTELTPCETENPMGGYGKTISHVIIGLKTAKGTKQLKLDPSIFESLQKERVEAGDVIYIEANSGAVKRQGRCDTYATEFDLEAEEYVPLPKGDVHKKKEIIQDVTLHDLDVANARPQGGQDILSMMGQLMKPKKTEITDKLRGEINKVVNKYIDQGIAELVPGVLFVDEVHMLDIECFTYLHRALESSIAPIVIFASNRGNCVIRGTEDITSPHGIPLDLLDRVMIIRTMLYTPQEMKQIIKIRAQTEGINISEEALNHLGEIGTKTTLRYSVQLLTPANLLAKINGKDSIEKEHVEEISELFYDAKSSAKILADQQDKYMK
Procedure, shortened: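 Recombinant human TIP48 and TIP49 expressed in E. coli (24.5 μg/mL final) were incubated 1.5 h at room temperature with compound (0.0007–200 μM, 2% DMSO) in Tris-HCl pH 7.5 buffer containing MgCl2 and ATP. ADP formed was detected by ADP-Glo luminescence; inhibition came from dose-response curves.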

Compound	GI50 [1]	pIC50 (TIP48/TIP49 complex)
CCOc1ccc(Cl)cc1C(=O)NCC(C)(C)CC(=O)Nc1c(CCNC(C)C)n(C)n(-c2ccccc2)c1=O [Example 18, 5-Chloro-N-[4-({5-[2-(isopropylamino)ethyl]-1-methyl-3-oxo-2-phenyl-2,3-dihydro-1H-pyrazol-4-yl}amino)-2,2-dimethyl-4-oxobutyl]-2-ethoxybenzamide]	550 nM	7.19
COc1ccc(Cl)cc1C(=O)NCC(C)(C)CC(=O)Nc1c(CCN)n(C)n(-c2ccccc2)c1=O [Example 21]	920 nM	6.96
COc1ccc(Cl)cc1C(=O)NCC(C)(C)CC(=O)Nc1c(CCN(C)C)n(C)n(-c2ccccc2)c1=O [Example 22, 5-Chloro-N-[4-({5-[2-(dimethylamino)ethyl]-1-methyl-3-oxo-2-phenyl-2,3-dihydro-1H-pyrazol-4-yl}amino)-2,2-dimethyl-4-oxobutyl]-2-methoxybenzamide]	460 nM	6.96
CCOc1ccc(Cl)cc1NC(=O)CC(C)(C)CC(=O)Nc1c(CCN(C)C)n(C)n(-c2ccccc2)c1=O [Example 23, N-(5-Chloro-2-ethoxyphenyl)-N′-{5-[2-(dimethylamino)ethyl]-1-methyl-3-oxo-2-phenyl-2,3-dihydro-1H-pyrazol-4-yl}-3,3-dimethylpentanediamide]	270 nM	6.96
CCOc1cc(F)c(Cl)cc1NC(=O)CC(C)(C)CC(=O)Nc1c(CCN(C)C)n(C)n(-c2ccccc2)c1=O [Example 24, N-(5-Chloro-2-ethoxy-4-fluorophenyl)-N′-{5-[2-(dimethylamino)ethyl]-1-methyl-3-oxo-2-phenyl-2,3-dihydro-1H-pyrazol-4-yl}-3,3-dimethylpentanediamide]	480 nM	6.42
CCOc1ncc(Cl)cc1NC(=O)CC(C)(C)CC(=O)Nc1c(CCN(C)C)n(C)n(-c2ccccc2)c1=O [Example 25, N-(5-Chloro-2-ethoxy-3-pyridyl)-N′-{5-[2-(dimethylamino)ethyl]-1-methyl-3-oxo-2-phenyl-2,3-dihydro-1H-pyrazol-4-yl}-3,3-dimethylpentanediamide]	490 nM	6.85

Now those with a lower GI50 [1], led by results:

GI50 [1]	pIC50 (TIP48/TIP49 complex)	Compound
150 nM	7.20	CCOc1ccc(Cl)cc1C(=O)NCC(C)(C)CC(=O)Nc1c(CCN(C)C(C)C)n(C)n(-c2ccccc2)c1=O [Example 19, 5-Chloro-2-ethoxy-N-{4-[(5-{2-[isopropyl(methyl)amino]ethyl}-1-methyl-3-oxo-2-phenyl-2,3-dihydro-1H-pyrazol-4-yl)amino]-2,2-dimethyl-4-oxobutyl}benzamide]
190 nM	7.19	COc1ccc(Cl)cc1C(=O)NCC(C)(C)CC(=O)Nc1c(CCNC(=O)OC(C)(C)C)n(C)n(-c2ccccc2)c1=O [Example 20, tert-Butyl N-{2-[4-({4-[(5-chloro-2-methoxybenzoyl)amino]-3,3-dimethylbutanoyl}amino)-2-methyl-5-oxo-1-phenyl-2,3-dihyro-1H-pyrazol-3-yl]ethyl}carbamate]
130 nM	7.20	CCOc1ccc(Cl)cc1C(=O)NCC(C)(C)CC(=O)Nc1c(CCNC)n(C)n(-c2ccccc2)c1=O [Example 33, 5-Chloro-N-[2,2-dimethyl-4-({1-methyl-5-[2-(methylamino)ethyl]-3-oxo-2-phenyl-2,3-dihydro-1H-pyrazol-4-yl}amino)-4-oxobutyl]-2-ethoxybenzamide]
98 nM	7.59	CCOc1ccc(Cl)cc1C(=O)NCC(C)(C)CC(=O)Nc1c(CCN(C)CC)n(C)n(-c2ccccc2)c1=O [Example 35, 5-Chloro-2-ethoxy-N-{4-[(5-{2-[ethyl(methyl)amino]ethyl}-1-methyl-3-oxo-2-phenyl-2,3-dihydro-1H-pyrazol-4-yl)amino]-2,2-dimethyl-4-oxobutyl}benzamide]
100 nM	7.54	CCOc1ccc(Cl)cc1C(=O)NCC(C)(C)CC(=O)Nc1c(CCCN(C)C)n(C)n(-c2ccccc2)c1=O [Example 63, 5-Chloro-N-[4-({5-[3-(dimethylamino)propyl]-1-methyl-3-oxo-2-phenyl-2,3-dihydro-1H-pyrazol-4-yl}amino)-2,2-dimethyl-4-oxobutyl]-2-ethoxybenzamide]
